17 compounds from patent publication US20260315487A1, “IKK-ALPHA INHIBITORS” (Cancer Research Technology Limited, priority 2023, published 2026) can be followed below.

As usually defined, the Ki is a dissociation constant, usually derived from enzyme kinetics or from competition with a known ligand. Lower therefore signals a stronger hold on the target.

Holding throughout (type): biochemical
One assay deals with T1, IKKα (Homo sapiens, UniProt O15111).
T1 sequence (O15111 1-745): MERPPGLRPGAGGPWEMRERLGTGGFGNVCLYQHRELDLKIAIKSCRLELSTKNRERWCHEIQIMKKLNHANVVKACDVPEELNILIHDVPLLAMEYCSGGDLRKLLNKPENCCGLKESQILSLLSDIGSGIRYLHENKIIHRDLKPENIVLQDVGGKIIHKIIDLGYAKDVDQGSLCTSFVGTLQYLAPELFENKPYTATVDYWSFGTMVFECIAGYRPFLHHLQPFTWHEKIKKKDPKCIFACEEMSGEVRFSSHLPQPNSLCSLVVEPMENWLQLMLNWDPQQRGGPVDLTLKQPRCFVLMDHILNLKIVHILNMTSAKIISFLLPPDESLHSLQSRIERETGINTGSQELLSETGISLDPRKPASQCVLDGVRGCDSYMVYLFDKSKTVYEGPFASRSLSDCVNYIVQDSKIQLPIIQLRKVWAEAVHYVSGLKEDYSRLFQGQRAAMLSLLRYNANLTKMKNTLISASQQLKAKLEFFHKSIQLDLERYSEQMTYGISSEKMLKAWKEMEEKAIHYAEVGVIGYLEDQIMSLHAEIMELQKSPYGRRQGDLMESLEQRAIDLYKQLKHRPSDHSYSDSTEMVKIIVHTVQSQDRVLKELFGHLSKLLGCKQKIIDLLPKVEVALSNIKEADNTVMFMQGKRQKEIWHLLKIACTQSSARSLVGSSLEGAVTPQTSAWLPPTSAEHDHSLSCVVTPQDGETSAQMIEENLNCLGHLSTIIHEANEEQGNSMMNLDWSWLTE
As to the kind of experiment: in-house DELFIA kinase assay, IKKα. From the text: (§1) To examine the pyrrolo[2,3 -b]pyridines as an alternative scaffold, we adopted the AIPP core because it had similar dimensions to 1 SU909, with HBD/HBA motifs positioned at the scaffold extremities to interact with both the hinge region and the G-loop wall of IKKα, a rationale we had previously proposed as the basis for imparting selectivity. A preliminary set of AIPP derivatives was designed to explore its utility as an IKK-targeting scaffold, whilst incorporating additional functionality through which to introduce selectivity for the IKKα isoform (2-4 SU1087, SU1266 and SU1253; FIG. 3). This was achieved by initially adopting two different approaches: either appending a hydrophobic moiety to the pyrrolo[2,3 -b]pyridine motif as a fused form to afford the tricyclic derivatives 2 and 3 SU1266 and SU1087, or as a phenyl substituent to introduce flexibility with the central pyrrolo[2,3 -b]pyridine moiety in 4 SU1253 . […] The pyrrolo[2,3 -b]pyridine was bound to the hinge region in the classical HBA/HBD motif with the GK+3 NH and C═O backbone, whilst the aminoindazole projected towards the top of the pocket to interact with the G-loop (FIG. 4A). […] In both isoforms, the 2 -phenyl moiety was oriented out from the hinge towards the exposed solvent area.

The target in the next assay is T2, IKKβ (Homo sapiens, UniProt O14920).
T2 sequence (O14920 1-756): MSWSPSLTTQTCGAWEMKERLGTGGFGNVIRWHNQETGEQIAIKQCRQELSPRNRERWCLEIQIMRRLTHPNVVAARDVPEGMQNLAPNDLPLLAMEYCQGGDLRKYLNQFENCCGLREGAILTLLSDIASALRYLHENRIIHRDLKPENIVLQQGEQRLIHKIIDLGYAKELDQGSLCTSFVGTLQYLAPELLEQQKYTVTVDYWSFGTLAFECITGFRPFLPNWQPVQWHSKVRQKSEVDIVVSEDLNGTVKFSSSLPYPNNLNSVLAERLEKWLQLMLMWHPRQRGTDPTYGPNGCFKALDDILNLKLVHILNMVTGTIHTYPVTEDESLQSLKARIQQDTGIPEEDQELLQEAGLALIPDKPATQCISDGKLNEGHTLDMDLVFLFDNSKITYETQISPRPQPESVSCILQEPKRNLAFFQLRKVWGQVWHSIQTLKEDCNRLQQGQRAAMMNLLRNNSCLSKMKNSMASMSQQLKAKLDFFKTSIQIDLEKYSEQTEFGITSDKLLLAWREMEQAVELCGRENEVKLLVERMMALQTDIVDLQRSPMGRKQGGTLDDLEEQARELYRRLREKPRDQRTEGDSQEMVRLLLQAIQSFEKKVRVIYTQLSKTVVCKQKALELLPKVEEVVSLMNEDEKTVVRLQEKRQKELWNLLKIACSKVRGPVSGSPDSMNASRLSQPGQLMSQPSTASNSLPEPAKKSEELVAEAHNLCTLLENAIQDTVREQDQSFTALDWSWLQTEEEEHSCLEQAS
As to the kind of experiment: in-house DELFIA kinase assay, IKKβ. From the text:
To examine the pyrrolo[2,3 -b]pyridines as an alternative scaffold, we adopted the AIPP core because it had similar dimensions to 1 SU909, with HBD/HBA motifs positioned at the scaffold extremities to interact with both the hinge region and the G-loop wall of IKKα, a rationale we had previously proposed as the basis for imparting selectivity. A preliminary set of AIPP derivatives was designed to explore its utility as an IKK-targeting scaffold, whilst incorporating additional functionality through which to introduce selectivity for the IKKα isoform (2-4 SU1087, SU1266 and SU1253; FIG. 3). This was achieved by initially adopting two different approaches: either appending a hydrophobic moiety to the pyrrolo[2,3 -b]pyridine motif as a fused form to afford the tricyclic derivatives 2 and 3 SU1266 and SU1087, or as a phenyl substituent to introduce flexibility with the central pyrrolo[2,3 -b]pyridine moiety in 4 SU1253 .

Another assay deals with IKKα over IKKβ. As to the kind of experiment: selectivity for IKKα over IKKβ from the kinase assay.
Description: as §1
To shift the selectivity profile towards IKKα, we selected 4 SU1253 for structural optimization based on the notion that sigma-bond rotation between the phenyl ring and the pyrrolo[2,3 -b]pyridine would inbuild the flexibility required to engage with the three dimensional array of residues nearby to exploit differences between the two isoforms. Furthermore, this would enable the inclusion of moieties that could also project into solvent and address solubility considerations. Small groups (NH2, OH, OMe, OEt and F) were initially introduced into the phenyl ring to evaluate their impact on the selectivity profile against both IKKs (5 a-g SU1354 -SU1373, Table 2 ). Our goal was to achieve a 1:50 selectivity ratio of IKKα to IKKβ, with a minimum IKKβ inhibitory Ki of 500 nM.

For the compound `Nc1n[nH]c2ccc(-c3ccnc4[nH]c(-c5cccc(CNC6CCCC6)c5)cc34)cc12` [5n SU1550, 5-(2-(3-((cyclopentylamino)methyl)phenyl)-1 H-pyrrolo[2,3-b]pyridin-4-yl)-1 H-indazol-3-amine], the Ki at IKKα came out at 10 nM; on IKKβ it was 191 nM. In the assay on IKKα over IKKβ, the “selectivity for IKKα over IKKβ, in words” value is “tended to improve selectivity”.

`CC(C)COc1cccc(-c2cc3c(-c4ccc5[nH]nc(N)c5c4)ccnc3[nH]2)c1` [5o SU1367, 5-(2-(3 -Isobutoxyphenyl)-1 H-pyrrolo[2,3-b]pyridin-4-yl)-1 H-indazol-3-amine]: affinity on IKKα was put at a Ki of 19 nM. On IKKβ, the “IKKβ inhibition, in words” value is on record as “lowest activity against IKKβ” and the affinity, expressed as Ki, was 458 nM. Moreover, in the assay with IKKα over IKKβ, the “selectivity for IKKα over IKKβ, in words” value was “tended to improve selectivity”.

In the case of `Nc1n[nH]c2ccc(-c3ccnc4[nH]c(-c5ccc(OCc6ccccc6)cc5)cc34)cc12` [5s SU1334], the results for the Ki at IKKα and on IKKβ were 16 nM and 189 nM, respectively. Moreover, the “selectivity for IKKα over IKKβ, in words” value with IKKα over IKKβ is “tended to improve IKKβactivity to reduce selectivity”.

Take `Cc1ccc(S(=O)(=O)Nc2ccc(-c3cc4c(-c5ccc6[nH]nc(N)c6c5)ccnc4[nH]3)cc2)cc1` [5u SU1283, N-(4-(4-(3 -Amino-1 H-indazol-5-yl)-1 H-pyrrolo[2,3-b]pyridin-2-yl)phenyl)-4-methylbenzenesulfonamide]: the Ki is 4 nM at IKKα and 67 nM on IKKβ. In the assay with IKKα over IKKβ, the “selectivity for IKKα over IKKβ, in words” value is “tended to improve IKKβactivity to reduce selectivity”.

The compound `Nc1n[nH]c2ccc(-c3ccnc4[nH]c(-c5cccc(OCc6ccccn6)c5)cc34)cc12` [5w SU1324, 5-(2-(3-(pyridin-2-ylmethoxy)phenyl)-1 H-pyrrolo[2,3-b]pyridin-4-yl)-1 H-indazol-3-amine] gave a Ki on IKKα of 16 nM. In addition, on IKKβ, the “IKKβ inhibition, in words” value is given as “lowest activity against IKKβ” and the Ki stood at 402 nM.

`Nc1n[nH]c2ccc(-c3ccnc4[nH]c(-c5cccc(OCC6CCOCC6)c5)cc34)cc12` [5x SU1335, 5-(2-(3-((Tetrahydro-2 H-pyran-4-yl)methoxy)phenyl)-1 H-pyrrolo[2,3-b]pyridin-4-yl)-1 H-indazol-3-amine] came in with a Ki on IKKα of 8 nM. At IKKβ, the “IKKβ inhibition, in words” value is “good IKKβ inhibition” and the Ki was found to be 122 nM.

In turn, `Nc1n[nH]c2ccc(-c3ccnc4[nH]c(-c5cccc(OCCN6CCOCC6)c5)cc34)cc12` [5y SU1336, 5-(2-(3-(2 -Morpholinoethoxy)phenyl)-1 H-pyrrolo[2,3-b]pyridin-4-yl)-1 H-indazol-3-amine] registered a Ki on IKKα of 9 nM. At IKKβ, the “IKKβ inhibition, in words” value is reported as “good IKKβ inhibition” and the Ki was found to be 29 nM.

For `COc1ccc(COc2cccc(-c3cc4c(-c5ccc6[nH]nc(N)c6c5)ccnc4[nH]3)c2)cc1` [5z SU1363, 5-(2-(3-((4 -Methoxybenzyl)oxy)phenyl)-1 H-pyrrolo[2,3-b]pyridin-4-yl)-1 H-indazol-3-amine], the Ki on IKKα came to 43 nM; on IKKβ, 166 nM.

Regarding `Nc1n[nH]c2ccc(-c3ccnc4[nH]c(-c5cc(F)cc(OCc6ccccc6)c5)cc34)cc12` [6a SU1371, 5-(2-(3-(Benzyloxy)-5-fluorophenyl)-1 H-pyrrolo[2,3-b]pyridin-4-yl)-1 H-indazol-3-amine], the Ki on IKKα stood at 59 nM; at IKKβ, 5030 nM.

For `COCCOCc1cc(OCc2ccccc2)cc(-c2cc3c(-c4ccc5[nH]nc(N)c5c4)ccnc3[nH]2)c1` [6b SU1358, 5-(2-(3-(Benzyloxy)-5-((2-methoxyethoxy)methyl)phenyl)-1 H-pyrrolo[2,3-b]pyridin-4-yl)-1 H-indazol-3-amine], the Ki was found to be 29 nM on IKKα and 1220 nM on IKKβ.

Consider `COCCNc1cc(OCc2ccccc2)cc(-c2cc3c(-c4ccc5[nH]nc(N)c5c4)ccnc3[nH]2)c1` [6c SU1365, 5-(2-(3-(Benzyloxy)-5-((2-methoxyethyl)amino)phenyl)-1 H-pyrrolo[2,3-b]pyridin-4-yl)-1 H-indazol-3-amine], for which the Ki on IKKα came out at 26 nM; on IKKβ, 1530 nM.

Take `Nc1n[nH]c2ccc(-c3ccnc4[nH]c(-c5cncc(OCc6ccccc6)c5)cc34)cc12` [6e SU1337, 5-(2-(5-(Benzyloxy)pyridin-3-yl)-1 H-pyrrolo[2,3-b]pyridin-4-yl)-1 H-indazol-3-amine]: the figures for the Ki on IKKα and on IKKβ were 21 nM and 1550 nM, respectively.

Take `Nc1n[nH]c2ccc(-c3ccnc4[nH]c(-c5cc(F)nc(CNc6ccccc6)c5)cc34)cc12` [6f SU1394, 5-(2-(2 -Fluoro-6-((phenylamino)methyl)pyridin-4-yl)-1 H-pyrrolo[2,3-b]pyridin-4-yl)-1 H-indazol-3-amine]: the Ki on IKKα was 33 nM; on IKKβ it was 503 nM.

In the case of `Nc1n[nH]c2ccc(-c3ccnc4[nH]c(-c5ccnc(SCc6ccccc6)c5)cc34)cc12` [6h SU1615, 5-(2-(2-(Benzylthio)pyridin-4-yl)-1 H-pyrrolo[2,3-b]pyridin-4-yl)-1 H-indazol-3-amine], the Ki amounted to 5 nM on IKKα and 1180 nM on IKKβ.

In the case of `Nc1n[nH]c2ccc(-c3ccnc4[nH]c(-c5cc(F)nc(SCc6ccccc6)c5)cc34)cc12` [6i SU1380, 5-(2-(2-(Benzylthio)-6-fluoropyridin-4-yl)-1 H-pyrrolo[2,3-b]pyridin-4-yl)-1 H-indazol-3-amine], the Ki at IKKα was determined as 127 nM; on IKKβ it was 3000 nM.

Regarding `Nc1n[nH]c2ccc(-c3ccnc4[nH]c(-c5cc(OCc6ccccc6)ccn5)cc34)cc12` [6j SU1602, 5-(2-(4-(Benzyloxy)pyridin-2-yl)-1 H-pyrrolo[2,3-b]pyridin-4-yl)-1 H-indazol-3-amine], the Ki at IKKα was found to be 25 nM; at IKKβ, 2300 nM.

As for `Nc1n[nH]c2ccc(-c3ccnc4[nH]c(-c5ccnc(OCCc6ccccc6)c5)cc34)cc12` [6l SU1621, 5-(2-(2 -Phenethoxypyridin-4-yl)-1 H-pyrrolo[2,3-b]pyridin-4-yl)-1 H-indazol-3-amine], the inhibitory constant (Ki) at IKKα was 42 nM; at IKKβ, 1600 nM.
